Here are results for ten molecules from patent publication US5604213A, “17-substituted steroids useful in cancer treatment” (priority 1992, dated 1997).

One data set has as its target T1, 17α-hydroxylase (Homo sapiens, UniProt P05093).
T1 construct: Human testes were obtained from previously untreated patients undergoing orchidectomy for prostatic cancer; from tissue; host or cells: human testes, microsomes
T1 sequence (P05093 1-508): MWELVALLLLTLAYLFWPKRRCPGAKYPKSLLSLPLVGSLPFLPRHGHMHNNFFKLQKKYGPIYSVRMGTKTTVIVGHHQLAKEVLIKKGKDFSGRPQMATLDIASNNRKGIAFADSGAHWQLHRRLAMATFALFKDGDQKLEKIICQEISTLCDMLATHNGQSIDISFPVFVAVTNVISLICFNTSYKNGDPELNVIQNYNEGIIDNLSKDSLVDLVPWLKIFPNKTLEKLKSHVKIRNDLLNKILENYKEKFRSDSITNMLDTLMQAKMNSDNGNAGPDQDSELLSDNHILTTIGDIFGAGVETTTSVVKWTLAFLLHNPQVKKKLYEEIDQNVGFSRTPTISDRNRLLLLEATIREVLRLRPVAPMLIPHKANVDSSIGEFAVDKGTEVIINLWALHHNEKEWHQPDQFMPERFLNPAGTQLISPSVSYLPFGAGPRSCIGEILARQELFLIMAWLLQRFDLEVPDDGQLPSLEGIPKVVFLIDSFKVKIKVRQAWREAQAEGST
Briefly: Determination of 17α-hydroxylase (human testicular microsomes, 3H-progesterone). It is filed as biochemical. The settings on record: for concentration required to achieve 50% inhibition of hydroxylase, versus the 3-pyridyl (in words): compared with 3-pyridyl.

The target of a further data set is T2, C17-C20 lyase (Homo sapiens, UniProt P05093).
T2 construct: Human testes were obtained from previously untreated patients undergoing orchidectomy for prostatic cancer; from tissue; host or cells: human testes, microsomes
T2 sequence (P05093 1-508): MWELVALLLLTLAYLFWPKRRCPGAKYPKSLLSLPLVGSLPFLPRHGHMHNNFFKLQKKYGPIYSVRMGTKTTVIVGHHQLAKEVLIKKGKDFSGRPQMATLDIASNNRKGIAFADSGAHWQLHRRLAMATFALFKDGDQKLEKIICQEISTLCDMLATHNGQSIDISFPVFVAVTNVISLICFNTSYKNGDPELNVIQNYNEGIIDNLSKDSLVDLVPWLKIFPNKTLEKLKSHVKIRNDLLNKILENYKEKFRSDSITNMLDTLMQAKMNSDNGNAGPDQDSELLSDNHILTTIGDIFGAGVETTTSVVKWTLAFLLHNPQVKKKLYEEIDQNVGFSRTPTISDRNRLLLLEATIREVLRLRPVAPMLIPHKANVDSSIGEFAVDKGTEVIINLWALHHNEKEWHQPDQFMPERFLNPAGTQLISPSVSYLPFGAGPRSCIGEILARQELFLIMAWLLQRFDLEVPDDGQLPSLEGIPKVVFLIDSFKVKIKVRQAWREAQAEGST
The experiment in a line: Determination of C17-C20 lyase (human testicular microsomes, 3H-17α-hydroxyprogesterone). The settings on record: for concentration required to achieve 50% inhibition of lyase, versus the 3-pyridyl (in words): compared with 3-pyridyl. It is filed as biochemical.

On the set-up of data set [1]: species or system mice. The conditions noted are these: mouse, in vivo; for post mortem examination: appearance of organs / post mortem examination: deposits: ip. On the procedure:
(§1) Male HWT mice, 12 weeks old, were treated daily for 2 weeks, with 5 animals per treatment group. The test compounds were the compound of Examples 1 and 4 (as representative of compounds of the invention having the pregenolone-like and progesterone-like skeletons respectively). Ketoconazole was also tested at three different doses. The test compounds were made up in 5% benzyl alcohol, 95% safflower oil, and were given i.p. In addition to an untreated control group of animals, there was also a solvent control group which received the same volume of liquid as the test group (5 ml/kg) but no test compound. All animals were sacrificed 24 hours after the last injection. Blood was collected by cardiac puncture into heparinized tubes, and the plasma used for RIA (radio immunoassay) of testosterone and luteinising hormone. The following organs were removed and weighed: adrenals, prostate, seminal vesicles, testes, kidneys. There was no significant body weight loss in any group of mice during the experiments.
In Ketoconazole-treated animals, adhesions were found in 2/5,2/5,4/5 of the low/middle/top dose groups. […] The livers were brown in the middle/top dose groups.

The test system of a further data set is Male HWT mice. The experiment in a line: In vivo organ weight test in mice. The settings on record: for Mean weight ± standard error, Adrenals / Mean weight ± standard error, Kidneys / Mean weight ± standard error, Seminal Vesicles / Mean weight ± standard error, Prostate / Mean weight ± standard error, Testes: 2 weeks. How it is done: as §1
A further data set deals with luteinising hormone. The experiment in a line: In vivo endocrine test in mice: plasma luteinising hormone (RIA). The conditions noted are these: 2 weeks. On the procedure:
as §1

Another data set deals with T3, aromatase (Homo sapiens, UniProt P11511).
T3 construct: using human placental microsomes; from tissue; host or cells: human placenta, microsomes
T3 sequence (P11511 1-503): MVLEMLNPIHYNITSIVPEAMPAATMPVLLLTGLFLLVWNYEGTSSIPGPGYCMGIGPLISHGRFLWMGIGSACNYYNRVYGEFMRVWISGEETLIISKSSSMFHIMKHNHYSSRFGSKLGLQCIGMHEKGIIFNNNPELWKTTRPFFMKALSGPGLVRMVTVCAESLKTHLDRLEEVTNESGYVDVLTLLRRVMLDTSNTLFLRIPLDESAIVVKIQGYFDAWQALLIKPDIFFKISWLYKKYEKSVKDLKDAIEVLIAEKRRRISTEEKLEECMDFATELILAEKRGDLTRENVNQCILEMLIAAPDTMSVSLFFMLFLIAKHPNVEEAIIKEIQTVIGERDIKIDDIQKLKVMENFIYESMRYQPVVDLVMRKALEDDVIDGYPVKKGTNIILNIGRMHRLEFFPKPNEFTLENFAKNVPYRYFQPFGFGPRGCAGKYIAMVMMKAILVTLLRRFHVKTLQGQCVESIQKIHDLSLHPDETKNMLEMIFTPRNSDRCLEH
Format: biochemical. The settings on record: human placental microsomes.

A further data set relates to testosterone. The experiment in a line: In vivo endocrine test in mice: plasma testosterone (RIA). The settings on record: 2 weeks.
Substrate in data set [2]: C[C@]12CCC(=O)C=C1CC[C@@H]1[C@@H]2CC[C@]2(C)C(=O)CC[C@@H]12
Briefly: cells, lysate or membranes named. The settings on record: other: human placental microsomes used.

For the molecule `CC12CCC(Oc3c(F)c(F)c(C(F)(F)F)c(F)c3F)CC1=CCC1C2CCC2(C)C(c3cccnc3)=CCC12` (stereo not shown), on 17α-hydroxylase, the “inhibition of hydroxylase (in words)” value was “very poor inhibitor”. The “inhibition of lyase (in words)” value on C17-C20 lyase is reported as “very poor inhibitor”.
Consider `CC(=O)O[C@H]1CC[C@@]2(C)C(=CC[C@@H]3[C@@H]2CC[C@]2(C)C(c4cccnc4)=CC[C@@H]32)C1` [Ex. 1, 3β-Acetoxy-17-(3-pyridyl)androsta-5,16-diene], for which, in data set [1], the “post mortem examination: appearance of organs” value is “all organs looked normal” and the “post mortem examination: deposits” value is reported as “oil/white deposits i.p”. In the data set on Male HWT mice (0.02 mmol/kg/day i.p.), the “Mean weight ± standard error, Adrenals” value was determined as 4.3 ± 0.2 mg and the “Mean weight ± standard error, Kidneys” value was 604 ± 24 mg. Also, in the data set with Male HWT mice (0.1 mmol/kg/day i.p.), the “Mean weight ± standard error, Adrenals” value amounted to 4.0 ± 0.2 mg and the “Mean weight ± standard error, Kidneys” value amounted to 500 ± 8 mg. In the data set on Male HWT mice (0.5 mmol/kg/day i.p.), the “Mean weight ± standard error, Adrenals” value was 4.7 ± 0.2 mg and the “Mean weight ± standard error, Kidneys” value turned out to be 449 ± 12 mg. Moreover, the “LH (Mean ± standard error)” value in the data set with luteinising hormone (0.02 mmol/kg/day i.p.) was 3.4 ± 0.5 ng/mL.
With `C[C@]12CC[C@H](O)CC1=CC[C@@H]1[C@@H]2CC[C@]2(C)C(c3cccnc3)=CC[C@@H]12` [Ex. 2, 17-(3-Pyridyl)androsta-5,16-dien-3β-ol], the IC50 at aromatase was greater than 20000 nM.
Take `C[C@]12CCC(=O)C=C1CC[C@@H]1[C@@H]2CC[C@]2(C)C(c3cccnc3)=CC[C@@H]12` [Ex. 4, 17-(3-Pyridyl)androsta-4,16-dien-3-one]: the “post mortem examination: appearance of organs” value in data set [1] was “all organs looked normal”. The “post mortem examination: deposits” value in data set [1] was “white deposits throughout the abdomen”. The “Testosterone (Mean ± standard error)” value in the data set on testosterone (0.02 mmol/kg/day i.p.) came out at 4.5 ± 0.3 nM; in the data set with testosterone (0.1 mmol/kg/day i.p.) it was 3.5 ± 1.0 nM; in the data set on testosterone (0.5 mmol/kg/day i.p.), 0.4 ± 0.1 nM. Further, the “Mean weight ± standard error, Adrenals” value in the data set on Male HWT mice (0.02 mmol/kg/day i.p.) is 4.7 ± 0.2 mg; in the data set on Male HWT mice (0.1 mmol/kg/day i.p.), 4.6 ± 0.4 mg; in the data set with Male HWT mice (0.5 mmol/kg/day i.p.), 4.9 ± 0.1 mg. The “Mean weight ± standard error, Seminal Vesicles” value is 108 ± 4 mg in the data set on Male HWT mice (0.02 mmol/kg/day i.p.), 61 ± 9 mg in the data set with Male HWT mice (0.1 mmol/kg/day i.p.) and 25 ± 1 mg with Male HWT mice (0.5 mmol/kg/day i.p.).
For `C[C@]12CCC(=O)C[C@@H]1CC[C@@H]1[C@@H]2CC[C@]2(C)C(c3cccnc3)=CC[C@@H]12` [Ex. 9, 17-(3-Pyridyl)-5α-androst-16-en-3-one], the IC50 on 17α-hydroxylase (approx. 4 nM enzyme, A and B ring variations, read-out: IC50 Hydroxylase (Table 2(a))) amounted to 4.7 nM.
Consider `C[C@]12CC[C@H](O)CC1=CC[C@@H]1[C@@H]2CC[C@]2(C)C(c3ccccn3)=CC[C@@H]12` [Example 2-Pyridyl], for which, at 17α-hydroxylase, the “concentration required to achieve 50% inhibition of hydroxylase, versus the 3-pyridyl (in words)” value was “far greater”. Besides, the “concentration required to achieve 50% inhibition of lyase, versus the 3-pyridyl (in words)” value on C17-C20 lyase is “far greater”.
For the molecule `C[C@]12CC[C@H](O)CC1=CC[C@@H]1[C@@H]2CC[C@]2(C)C(Cc3ccccn3)=CC[C@@H]12` [Example 2-picolyl], on 17α-hydroxylase, the “concentration required to achieve 50% inhibition of hydroxylase, versus the 3-pyridyl (in words)” value is recorded as “far greater”. Besides, on C17-C20 lyase, the “concentration required to achieve 50% inhibition of lyase, versus the 3-pyridyl (in words)” value is given as “far greater”.
With `C[C@]12CC[C@H](O)CC1=CC[C@@H]1[C@@H]2CC[C@]2(C)C(c3ccncc3)=CC[C@@H]12` [Example 4-pyridyl], the “concentration required to achieve 50% inhibition of hydroxylase, versus the 3-pyridyl (in words)” value on 17α-hydroxylase is reported as “far greater”. Besides, on C17-C20 lyase, the “concentration required to achieve 50% inhibition of lyase, versus the 3-pyridyl (in words)” value is “far greater”.
In the case of `CC(=O)N1CCN(c2ccc(OCC3COC(Cn4ccnc4)(c4ccc(Cl)cc4Cl)O3)cc2)CC1` (stereo not shown) [Ketoconazole], in data set [1], the appearance of livers result was “brown”; the “gut and peritoneal wall, appearance” value is reported as “seemed to be stuck to the seminal vesicles”. Also, in the data set on Male HWT mice (0.01 mmol/kg/day i.p.), the “Mean weight ± standard error, Adrenals” value came out at 4.8 ± 0.2 mg; the “Mean weight ± standard error, Kidneys” value is 637 ± 22 mg; the “Mean weight ± standard error, Prostate” value stood at 9.1 ± 0.8 mg; the “Mean weight ± standard error, Seminal Vesicles” value amounted to 235 ± 18 mg. In addition, in the data set with Male HWT mice (0.01 mmol/kg/day i.p.), the “Mean weight ± standard error, Testes” value came out at 141 ± 5 mg. In the data set on Male HWT mice (0.225 mmol/kg/day i.p.), the “Mean weight ± standard error, Adrenals” value was 6.1 ± 0.3 mg; the “Mean weight ± standard error, Kidneys” value turned out to be 574 ± 23 mg; the “Mean weight ± standard error, Prostate” value worked out at 10.8 mg; the “Mean weight ± standard error, Seminal Vesicles” value was 171 ± 5 mg. The “Mean weight ± standard error, Testes” value with Male HWT mice (0.225 mmol/kg/day i.p.) is 127 ± 7 mg. In addition, in the data set on Male HWT mice (0.5 mmol/kg/day i.p.), the “Mean weight ± standard error, Adrenals” value came to 6.9 ± 0.3 mg; the “Mean weight ± standard error, Kidneys” value was 710 ± 30 mg; the “Mean weight ± standard error, Prostate” value stood at 9.3 ± 0.9 mg; the “Mean weight ± standard error, Seminal Vesicles” value is 179 ± 20 mg. Moreover, the “Mean weight ± standard error, Testes” value in the data set with Male HWT mice (0.5 mmol/kg/day i.p.) came out at 133 ± 6 mg. In the data set on Male HWT mice (two highest doses), the “effect on adrenal weight” value was “increase in adrenal weight”. Moreover, the “LH (Mean ± standard error)” value with luteinising hormone (0.1 mmol/kg/day i.p.) stood at 0.39 ± 0.14 ng/mL. Moreover, the “LH (Mean ± standard error)” value in the data set on luteinising hormone (0.225 mmol/kg/day i.p.) worked out at 0.75 ± 0.02 ng/mL. Further, the “LH (Mean ± standard error)” value in the data set on luteinising hormone (0.5 mmol/kg/day i.p.) was determined as 0.76 ± 0.03 ng/mL.

B1: aromatase (Homo sapiens) (protein)
chain: MVLEMLNPIHYNITSIVPEAMPAATMPVLLLTGLFLLVWNYEGTSSIPGPGYCMGIGPLISHGRFLWMGIGSACNYYNRVYGEFMRVWISGEETLIISKSSSMFHIMKHNHYSSRFGSKLGLQCIGMHEKGIIFNNNPELWKTTRPFFMKALSGPGLVRMVTVCAESLKTHLDRLEEVTNESGYVDVLTLLRRVMLDTSNTLFLRIPLDESAIVVKIQGYFDAWQALLIKPDIFFKISWLYKKYEKSVKDLKDAIEVLIAEKRRRISTEEKLEECMDFATELILAEKRGDLTRENVNQCILEMLIAAPDTMSVSLFFMLFLIAKHPNVEEAIIKEIQTVIGERDIKIDDIQKLKVMENFIYESMRYQPVVDLVMRKALEDDVIDGYPVKKGTNIILNIGRMHRLEFFPKPNEFTLENFAKNVPYRYFQPFGFGPRGCAGKYIAMVMMKAILVTLLRRFHVKTLQGQCVESIQKIHDLSLHPDETKNMLEMIFTPRNSDRCLEH
On to B1, for which the Michaelis-Menten constant (Km) in data set [2] came out at 0.039 µM.

A word on the IC50: it is the concentration that inhibits the measured activity by half. What is called Km is the substrate concentration at which the rate is half of its maximum.
